In brackets after ≈: the same amount, converted by molar mass. Like-named read-outs stand apart in the source and are kept apart here. Each block holds one compound with its values, some of them ahead of it.
How the values were obtained:
MCF7/adr = experiment: Reversal of drug resistance by ethanol extracts of Schisandra chinensis fruit, MTT cytotoxicity of anticancer agents
[1] = tested on: human epidermoid carcinoma MDR cell line KBv200; experiment: cells; conditions: KBv200, 72 h
HL60/adr = experiment: Reversal of MRP1-mediated drug resistance, MTT cytotoxicity of anticancer agents; format: cell-based, human; conditions: for IC50: Homo sapiens, HL60/ADR, 72 h
Method: Assays were carried out in triplicate against MDR cancer cell HL60/adr. MTT assays as described previously (X.

[2] = tested on: human leukemia MDR cell line K562/adr; experiment: Reversal of P-glycoprotein-mediated drug resistance by Schisandrin A, Schisandrol A, Schisantherin A, MTT cytotoxicity of anticancer agents; format: cell-based; conditions: for IC50: Homo sapiens, K562/Adr, 72 h
Method: Assays were carried out in triplicate against human leukemia MDR cell line K562/adr, human breast cancer MDR cell line MCF7/adr, and human epidermoid carcinoma MDR cell line KBv200.

SMMC7721 = experiment: Enhancement of anticancer agent-induced apoptosis and necrosis, Anexin V-FITC/PI; format: cell-based, human; conditions: SMMC7721; vincristine 0.5 μg/ml, Schisandrin B 20 μg/ml; 48 hours
Method: To illustrate the activities of Schisandrin B or its analogs enhancing the apoptosis of cancer cells induced by an anticancer agent according to the present disclosure, human cancer cell line SMMC7721, a non-drug-resistant hepatic cancer cell line, and MCF7, a non-drug-resistant breast cancer cell line, were selected for use. Assays were carried out in triplicates against SMMC7721 or MCF7. […] Cells were collected and the apoptotic cells and necrotic cell percentages were determined using Anexin V-FITC/PI kit (Sigma, St. Louis, Mo., USA) according to manufacturer's instructions. Alternatively, the apoptotic and necrotic cell percentages were measured using DNA Plus kit (Becton-Dickinson, USA) according to the manufacturer's instructions.

KBv200 = experiment: Reversal of drug resistance by ethanol extracts of Schisandra chinensis fruit, MTT cytotoxicity of anticancer agents
[3] = tested on: human breast cancer MDR cell line MCF7/adr
K562/adr = experiment: Reversal of drug resistance by ethanol extracts of Schisandra chinensis fruit, MTT cytotoxicity of anticancer agents; format: cell-based, human
Method: Assays were carried out in triplicate against human MDR cancer cell lines K562/adr, KBv200, and MCF7/adr. […] Alternatively, flow cytometry assays using FACS Calibur equipped with software Cellquest 3.1f (Becton-Dickinson, Holbrook, N.J.) were applied to count the cell numbers in each sample.

[4] = tested on: human breast cancer MDR cell line MCF7/adr; experiment: cells; conditions: NCI/ADR-RES, 72 h
[5] = tested on: human epidermoid carcinoma MDR cell line KBv200
P-glycoprotein = P-glycoprotein (Homo sapiens, UniProt P08183); experiment: Daunorubicin accumulation in MCF7/adr cells (P-glycoprotein-mediated drug efflux), flow cytometry; format: cell-based; conditions: 2 μg/ml daunorubicin; 0, 1, 10, 20, 40, and 80 μg/ml compound; 60 minutes; FIG. 5
Chain of P-glycoprotein (P08183 whole entry): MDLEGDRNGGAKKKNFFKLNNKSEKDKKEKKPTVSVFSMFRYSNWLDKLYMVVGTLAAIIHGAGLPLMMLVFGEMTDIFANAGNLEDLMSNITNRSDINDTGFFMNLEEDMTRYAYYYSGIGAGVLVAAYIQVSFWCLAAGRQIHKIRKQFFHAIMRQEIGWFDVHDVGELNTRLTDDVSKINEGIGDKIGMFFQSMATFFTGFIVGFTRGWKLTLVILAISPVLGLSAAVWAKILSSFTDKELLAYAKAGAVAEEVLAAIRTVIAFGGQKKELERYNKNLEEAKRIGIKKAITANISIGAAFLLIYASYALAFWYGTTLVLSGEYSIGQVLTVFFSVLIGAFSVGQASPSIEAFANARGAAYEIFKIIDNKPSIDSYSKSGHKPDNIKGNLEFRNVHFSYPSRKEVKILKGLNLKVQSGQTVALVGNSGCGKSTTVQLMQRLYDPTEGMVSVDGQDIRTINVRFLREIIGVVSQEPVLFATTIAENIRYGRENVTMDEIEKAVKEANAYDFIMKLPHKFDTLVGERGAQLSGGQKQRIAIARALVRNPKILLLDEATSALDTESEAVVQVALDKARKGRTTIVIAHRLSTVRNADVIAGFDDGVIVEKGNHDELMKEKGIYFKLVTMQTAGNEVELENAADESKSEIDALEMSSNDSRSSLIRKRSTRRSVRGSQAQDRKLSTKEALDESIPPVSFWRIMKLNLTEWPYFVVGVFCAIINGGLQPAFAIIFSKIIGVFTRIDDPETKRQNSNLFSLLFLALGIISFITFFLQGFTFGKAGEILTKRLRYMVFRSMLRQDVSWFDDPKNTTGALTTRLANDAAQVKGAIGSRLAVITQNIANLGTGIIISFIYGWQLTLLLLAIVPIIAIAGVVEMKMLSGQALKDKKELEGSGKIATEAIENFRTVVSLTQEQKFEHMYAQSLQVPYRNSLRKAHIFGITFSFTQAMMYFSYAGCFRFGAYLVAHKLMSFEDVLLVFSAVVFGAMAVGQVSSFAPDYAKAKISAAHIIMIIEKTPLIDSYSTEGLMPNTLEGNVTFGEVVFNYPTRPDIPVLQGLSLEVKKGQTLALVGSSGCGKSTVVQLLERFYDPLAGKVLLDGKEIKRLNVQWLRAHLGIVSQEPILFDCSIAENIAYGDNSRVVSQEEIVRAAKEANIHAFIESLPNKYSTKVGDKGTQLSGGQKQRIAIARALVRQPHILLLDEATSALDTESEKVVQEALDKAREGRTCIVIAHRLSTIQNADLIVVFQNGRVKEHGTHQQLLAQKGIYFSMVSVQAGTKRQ
Method: P-glycoprotein functions as a drug pump that unilaterally pumps the anticancer agents out of MDR cancer cells. Inhibition of P-glycoprotein results in an increase of the intracellular drug concentration within cancer cells. […] Cells were collected at 60 minutes after incubation.

MRP1 = molecular target: T1, MRP1 (Homo sapiens, UniProt P33527); experiment: Daunorubicin accumulation in HL60/adr cells (MRP1-mediated drug efflux), flow cytometry; format: cell-based; conditions: 2 μg/ml daunorubicin; 60 minutes; FIG. 7
T1 construct: human cancer cell line HL60/adr, an MDR cell line characterized by MRP1 overexpression; endogenous in cells; host or cells: HL60/adr (human MDR cancer cell line)
T1 sequence (P33527 whole entry): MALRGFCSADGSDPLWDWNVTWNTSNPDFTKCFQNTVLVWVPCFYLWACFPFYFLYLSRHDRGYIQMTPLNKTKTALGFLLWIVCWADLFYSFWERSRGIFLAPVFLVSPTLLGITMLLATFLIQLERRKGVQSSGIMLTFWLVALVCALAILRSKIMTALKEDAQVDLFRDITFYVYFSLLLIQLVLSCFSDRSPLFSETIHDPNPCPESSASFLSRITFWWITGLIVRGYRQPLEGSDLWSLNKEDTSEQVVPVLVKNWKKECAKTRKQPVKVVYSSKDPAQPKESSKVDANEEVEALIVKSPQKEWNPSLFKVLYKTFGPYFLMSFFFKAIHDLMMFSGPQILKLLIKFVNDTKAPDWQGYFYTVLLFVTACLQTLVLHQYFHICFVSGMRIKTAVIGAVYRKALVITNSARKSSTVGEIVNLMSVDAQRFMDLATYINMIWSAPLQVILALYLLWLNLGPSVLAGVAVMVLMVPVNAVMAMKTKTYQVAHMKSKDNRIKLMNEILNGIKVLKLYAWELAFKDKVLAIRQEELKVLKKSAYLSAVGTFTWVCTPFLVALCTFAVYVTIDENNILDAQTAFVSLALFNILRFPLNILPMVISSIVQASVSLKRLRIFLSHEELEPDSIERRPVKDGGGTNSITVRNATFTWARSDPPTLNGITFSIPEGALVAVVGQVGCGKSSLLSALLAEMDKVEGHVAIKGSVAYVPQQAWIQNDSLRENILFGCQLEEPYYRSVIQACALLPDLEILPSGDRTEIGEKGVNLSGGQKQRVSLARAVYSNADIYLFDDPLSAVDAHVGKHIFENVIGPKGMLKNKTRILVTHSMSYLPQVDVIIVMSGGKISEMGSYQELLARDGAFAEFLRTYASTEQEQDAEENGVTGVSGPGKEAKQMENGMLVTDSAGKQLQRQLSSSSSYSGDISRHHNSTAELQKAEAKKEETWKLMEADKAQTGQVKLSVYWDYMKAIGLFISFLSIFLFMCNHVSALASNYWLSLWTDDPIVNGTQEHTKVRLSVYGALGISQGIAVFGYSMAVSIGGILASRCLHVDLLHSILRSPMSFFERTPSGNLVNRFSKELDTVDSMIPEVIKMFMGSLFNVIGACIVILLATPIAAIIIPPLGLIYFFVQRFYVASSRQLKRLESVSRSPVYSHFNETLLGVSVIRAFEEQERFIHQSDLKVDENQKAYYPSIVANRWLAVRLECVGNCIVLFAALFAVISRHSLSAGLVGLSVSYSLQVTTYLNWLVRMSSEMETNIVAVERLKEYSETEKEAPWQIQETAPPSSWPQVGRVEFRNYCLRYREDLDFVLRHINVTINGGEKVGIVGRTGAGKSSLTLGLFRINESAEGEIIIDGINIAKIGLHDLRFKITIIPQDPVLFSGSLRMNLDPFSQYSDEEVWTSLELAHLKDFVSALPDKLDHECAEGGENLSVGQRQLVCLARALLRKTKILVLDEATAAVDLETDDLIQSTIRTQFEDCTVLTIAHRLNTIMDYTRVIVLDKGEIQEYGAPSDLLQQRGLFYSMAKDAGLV
Text: MRP1 functions as a drug pump that unilaterally pumps the anticancer agents out of MDR cancer cells. Inhibition of MRP1 results in an increase of intracellular drug concentration within cancer cells.

[6] = read-out: IC50 (ng/ml) −Schisandrin A
[7] = read-out: IC50 (ng/ml) −Schisantherin A
[8] = anticancer agent in the presence of Schisandrin A (10 μg/ml), 72 hours
[9] = anticancer agent in the presence of Schisantherin A (10 μg/ml), 72 hours

IC50 [1, 6]: 22.5 ± 3.2 ng/mL (≈ 0.0273 µM)
IC50 [1, 7]: 22.5 ± 5.6 ng/mL (≈ 0.0273 µM)
IC50 (ng/ml) +Schisandrin A [3, 8]: 8.4 ± 2.3 ng/mL
IC50 (ng/ml) +Schisantherin A [3, 9]: 24.1 ± 9.2 ng/mL
IC50 [4, 6]: 501 ± 129 ng/mL (≈ 0.607 µM)
IC50 [4, 7]: 501 ± 109 ng/mL (≈ 0.607 µM)
IC50 (ng/ml) +Schisandrin A [5, 8]: 2.95 ± 0.7 ng/mL
IC50 (ng/ml) +Schisantherin A [5, 9]: 3.7 ± 0.9 ng/mL
Compound: CC[C@]1(O)C[C@H]2CN(CCc3c([nH]c4ccccc34)[C@@](C(=O)OC)(c3cc4c(cc3OC)N(C=O)[C@H]3[C@@](O)(C(=O)OC)[C@H](OC(C)=O)[C@]5(CC)C=CCN6CC[C@]43[C@@H]65)C2)C1 [Vincristine]
IC50 (MCF7/adr; Homo sapiens, NCI/ADR-RES, 72 h, read-out: IC50 (ng/ml) −ethanol extract): 490 ± 112 ng/mL
IC50 (ng/ml) +ethanol extract (MCF7/adr; MCF7/adr, anticancer agent in the presence of ethanol extracts (50 μg/ml), 72 hours): 210 ± 32 ng/mL
RF (reversal folds of drug resistance) (MCF7/adr; MCF7/adr, by ethanol extracts (50 μg/ml)): 2.3
IC50 (ng/ml) +Schisandrin A (HL60/adr; HL60/adr, anticancer agent in the presence of Schisandrin A (10 μg/ml), 72 hours): 3.3 ± 0.9 ng/mL
IC50 (ng/ml) +Schisandrin B (HL60/adr; HL60/adr, anticancer agent in the presence of Schisandrin B (10 μg/ml), 72 hours): <1 ng/mL
IC50 (ng/ml) +Schisantherin A (HL60/adr; HL60/adr, anticancer agent in the presence of Schisantherin A (10 μg/ml), 72 hours): 3.9 ± 0.9 ng/mL
RF (reversal folds of drug resistance) (HL60/adr; HL60/adr, by Schisandrin A (10 μg/ml)): 27.0
RF (reversal folds of drug resistance) (HL60/adr; HL60/adr, by Schisandrin B (10 μg/ml)): >48
RF (reversal folds of drug resistance) (HL60/adr; HL60/adr, by Schisantherin A (10 μg/ml)): 22.8
IC50 (ng/ml) +Schisandrin B (HL60/adr; HL60/adr, vincristine in the presence of Schisandrin B 5 μg/ml, 72 hours): 5 ± 1 ng/mL
IC50 (ng/ml) +Schisandrin B (HL60/adr; HL60/adr, vincristine in the presence of Schisandrin B 10 μg/ml, 72 hours): 4 ± 2 ng/mL
IC50 (ng/ml) +Schisandrin B (HL60/adr; HL60/adr, vincristine in the presence of Schisandrin B 20 μg/ml, 72 hours): <1 ng/mL
IC50 (HL60/adr; HL60/adr, anticancer agent in the absence of Schisandrin A, 72 hours, read-out: IC50 (ng/ml) −Schisandrin A): 89 ± 21 ng/mL
IC50 (HL60/adr; HL60/adr, anticancer agent in the absence of Schisandrin B, 72 hours, read-out: IC50 (ng/ml) −Schisandrin B): 48 ± 12 ng/mL
IC50 (HL60/adr; HL60/adr, anticancer agent in the absence of Schisantherin A, 72 hours, read-out: IC50 (ng/ml) −Schisantherin A): 89.1 ± 21 ng/mL
IC50 (HL60/adr; HL60/adr, vincristine in the absence of Schisandrin B, 72 hours, read-out: IC50 (ng/ml) −Schisandrin B): 42 ± 1 ng/mL
IC50 ([2]; K562/adr, anticancer agent in the absence of Schisandrin A, 72 hours, read-out: IC50 (ng/ml) −Schisandrin A): 612 ± 176 ng/mL
IC50 ([2]; K562/adr, anticancer agent in the absence of Schisantherin A, 72 hours, read-out: IC50 (ng/ml) −Schisantherin A): 612 ± 158 ng/mL
IC50 (ng/ml) +Schisandrin A ([2]; K562/adr, anticancer agent in the presence of Schisandrin A (10 μg/ml), 72 hours): 7.3 ± 2.1 ng/mL
IC50 (ng/ml) +Schisantherin A ([2]; K562/adr, anticancer agent in the presence of Schisantherin A (10 μg/ml), 72 hours): 7.7 ± 2.1 ng/mL
RF (reversal folds of drug resistance) ([2]; K562/adr, by Schisandrin A (10 μg/ml)): 83.8
RF (reversal folds of drug resistance) ([2]; K562/adr, by Schisantherin A (10 μg/ml)): 79.5
Apoptotic + necrotic (%) (SMMC7721): 6.1 ± 0.4%
IC50 (KBv200; Homo sapiens, KBv200, 72 h, read-out: IC50 (ng/ml) −ethanol extract): 42 ± 14 ng/mL
RF (reversal folds of drug resistance) (KBv200; KBv200, by ethanol extracts (50 μg/ml)): 13.5
RF (reversal folds of drug resistance) ([3]; by Schisandrin A (10 μg/ml)): 59.6
RF (reversal folds of drug resistance) ([3]; by Schisantherin A (10 μg/ml)): 20.9
IC50 (K562/adr; Homo sapiens, anticancer agent in the absence of ethanol extracts, 72 hours, read-out: IC50 (ng/ml) −ethanol extract): 870 ± 230 ng/mL
IC50 (ng/ml) +ethanol extract (K562/adr; anticancer agent in the presence of ethanol extracts (50 μg/ml), 72 hours): 110 ± 42 ng/mL
RF (reversal folds of drug resistance) (K562/adr; by ethanol extracts (50 μg/ml)): 7.9
RF (reversal folds of drug resistance) ([5]; by Schisandrin A (10 μg/ml)): 7.6
RF (reversal folds of drug resistance) ([5]; by Schisantherin A (10 μg/ml)): 6.1

Compound: COc1cc2c(c(OC)c1OC)-c1c(cc3c(c1OC)OCO3)C[C@H](C)[C@](C)(O)[C@H]2OC(=O)c1ccccc1 [Schisantherin A]
accumulation of daunorubicin within MCF7/adr cells (in words) (P-glycoprotein): proportionately correlated with the increment of the concentration
drug sensitivity of HL60/adr toward the anticancer agents (in words) (HL60/adr; compound 10 μg/ml): enhanced
sensitivity of MDR cancer cell K562/adr to daunorubicin (in words) ([2]; FIG. 3): increase the sensitivity
daunorubicin accumulation within HL60/adr cells (in words) (MRP1): increased with the increasing concentration
